# Where “and” joins values, the source holds several entries; their conditions need not be identical. Identical values can stand only once. Like-named read-outs stand apart in the source and are kept apart here.
# Tests used:
# P. expansum = test: Natural P. expansum infections in organic Elstar apples; format: in vivo
# Text: 2—In vivo Study of the Activity of Phosphonic Acid (Kphos) on P. expansum Infections in Apples
# Penicillium digitatum = test: Washington oranges inoculated with Penicillium digitatum, eugenol/potassium phosphite; format: in vivo
# Method: Washington oranges inoculated with Penicillium digitatum came into contact with a eugenol/potassium phosphite solution containing 1,100 ppm of eugenol and 1,600 ppm of potassium phosphite for 2 minutes at 38° C. and 48° C. The treated fruit was kept at 7° C. and then examined after 9 and 18 days. The fruit was compared with fruit treated with only eugenol in the same conditions and with inoculated fruits that had not been treated.
# [1] = test system: strain of Penicillium digitatum resistant to imazalil; test: Valencia oranges inoculated with Penicillium digitatum resistant to imazalil; format: in vivo; conditions: 52° C., 2 minutes
# Method: Valencia oranges inoculated with a strain of Penicillium digitatum resistant to imazalil were treated at 52° C. and were in contact for 2 minutes with: • 300 ppm imazalil; • 3,000 ppm potassium phosphite • the two products mixed in proportions of 300 ppm imazalil and 3,000 ppm potassium phosphite.
# P. Digitatum [2] = test: Navel oranges damaged and inoculated with P. digitatum, PA with Bioxeda and thermotherapy; format: in vivo; conditions: 18 days, 48° C. 2 min
# Method: 3—Efficacy of PA and Thermotherapy on P. digitatum Infections in Oranges
# In this experiment, the oranges were damaged then inoculated with P. Digitatum (500,000 sp/mL) and treated 15 hours later; they were stored at 5° C.
# P. Digitatum [3] = test: Natural P. digitatum infections in Navel oranges, comparison with three fungicides; format: in vivo; conditions: Thermotherapy + phosphonic acid 2,000 ppm; SPC 3 days at ambient temperature
# Text: 4—Efficacy of PA on P. digitatum Infections in Oranges. Comparison with a Mixture of Three Fungicides. All Treatments Were Combined with Thermotherapy
# oranges = conditions: PA up to 4,000 ppm, with thermotherapy
# Method: (§1) A new experiment which took place under conditions very similar to those in real life was carried out: natural infections, storage in cold conditions, simulation of storage periods (SPC).
# P. Digitatum [4] = test system: P. Digitatum
# Method: 5—Efficacy of PA on Natural P. digitatum Infections in Oranges Combined with Thermotherapy
# as §1
# P. expansum spores = test system: P. expansum spores
# Text: 1—In vitro Study of the Activity of Phosphonic Acid on P. expansum
# [5] = 3,000 ppm potassium phosphite, tests 1-4
compound,measurement,setting,value
Cc1cc(C)nc(Nc2ccccc2)n1 [Pyrimethanil],% apples with symptoms,"P. expansum; 250 ppm, 2001-2002, 90 days",4.1%
same,% apples with symptoms,"P. expansum; 250 ppm, 2001-2002, 180 days",16.2%
same,% apples with symptoms,"P. expansum; 250 ppm, 2002-2003, 90 days",4.0%
same,% apples with symptoms,"P. expansum; 250 ppm, 2002-2003, 180 days",19.0%
same,% apples with symptoms,"P. expansum; 500 ppm, 2001-2002, 90 days",3.2%
same,% apples with symptoms,"P. expansum; 500 ppm, 2001-2002, 180 days",21.3%
same,% apples with symptoms,"P. expansum; 500 ppm, 2002-2003, 90 days",0.0%
same,% apples with symptoms,"P. expansum; 500 ppm, 2002-2003, 180 days",14.0%
"C=CCc1ccc(O)c(OC)c1 [eugenol, reference compound]",percentages of decayed fruit,"Penicillium digitatum; eugenol 1,100 ppm, 2 minutes at 38° C., kept at 7° C., after 9 days",12%
same,percentages of decayed fruit,"Penicillium digitatum; eugenol 1,100 ppm, 2 minutes at 38° C., kept at 7° C., after 18 days",73%
same,percentages of decayed fruit,"Penicillium digitatum; eugenol 1,100 ppm, 2 minutes at 48° C., kept at 7° C., after 9 days",4%
same,percentages of decayed fruit,"Penicillium digitatum; eugenol 1,100 ppm, 2 minutes at 48° C., kept at 7° C., after 18 days",60%
potassium phosphite,percentages of decayed fruit,"Penicillium digitatum; potassium phosphite, 38° C., after 9 days",14%
same,percentages of decayed fruit,"Penicillium digitatum; potassium phosphite, 38° C., after 18 days",76%
same,percentages of decayed fruit,"Penicillium digitatum; potassium phosphite, 48° C., after 9 days",3%
same,percentages of decayed fruit,"Penicillium digitatum; potassium phosphite, 48° C., after 18 days",44%
same,Average % of decayed fruit,"[1]; 3,000 ppm potassium phosphite",42.5%
same,% of decayed fruit,[1]; [5],50% and 60% and 30%
same,Number of fruit decayed,[1]; [5],5 and 6 and 3
same,Number of fruit unaffected,[1]; [5],5 and 4 and 7
N#Cc1c[nH]cc1-c1cccc2c1OC(F)(F)O2 [Fluidoxonil],% apples with symptoms,"P. expansum; 200 ppm, 2001-2002, 90 days",1.1%
same,% apples with symptoms,"P. expansum; 200 ppm, 2001-2002, 180 days",4.9%
same,% apples with symptoms,"P. expansum; 200 ppm, 2002-2003, 90 days",4.0%
same,% apples with symptoms,"P. expansum; 200 ppm, 2002-2003, 180 days",7.0%
"O=[PH](O)O [PA, Phosphonic acid]","rate of decay, times lower in the presence of PA",P. Digitatum [2]; Bioxeda + PA versus Bioxeda,2.3 times
same,Oranges with symptoms,"P. Digitatum [2]; eugenol 1.8 g/L + PA 1,000 ppm (Kphos), stored at 5° C.",26%
same,Oranges with symptoms 12 D 5 0C = 3 D SPC (1),P. Digitatum [3],0.5
same,phytotoxicity,oranges,No phytotoxicity
same,% oranges with symptoms 15 D 5° C. + 5 D SPC,"P. Digitatum [4]; 2,000 ppm, no thermotherapy",6.0%
same,efficacy,"P. Digitatum [4]; 4,000 ppm combined with thermotherapy",73.5%
same,% oranges with symptoms 15 D 5° C. + 5 D SPC,"P. Digitatum [4]; 4,000 ppm, no thermotherapy",5.1%
same,% oranges with symptoms 15 D 5° C. + 5 D SPC,"P. Digitatum [4]; Thermotherapy (50° C. 3 min) + 2,000 ppm",4.0%
same,% oranges with symptoms 15 D 5° C. + 5 D SPC,"P. Digitatum [4]; Thermotherapy (50° C. 3 min) + 4,000 ppm",2.7%
same,% apples with symptoms,"P. expansum; 1,000 ppm - 50° C. 2 min, 2001-2002, 90 days",0.0%
same,% apples with symptoms,"P. expansum; 1,000 ppm - 50° C. 2 min, 2001-2002, 180 days",4.7%
same,% apples with symptoms,"P. expansum; 1,000 ppm - 50° C. 2 min, 2002-2003, 90 days",0.0%
same,% apples with symptoms,"P. expansum; 1,000 ppm - 50° C. 2 min, 2002-2003, 180 days",6.3%
same,% apples with symptoms,"P. expansum; 1,000 ppm, 2001-2002, 90 days after treatment, 2° C.",3.1%
same,% apples with symptoms,"P. expansum; 1,000 ppm, 2001-2002, 180 days after treatment, 2° C.",13.1%
same,% apples with symptoms,"P. expansum; 1,000 ppm, 2002-2003, 90 days after treatment, 2° C.",4.9%
same,% apples with symptoms,"P. expansum; 1,000 ppm, 2002-2003, 180 days after treatment, 2° C.",11.1%
same,activity in vivo,P. expansum; PA at ambient temperature on P. expansum in apples,~0
same,Germinated spores,"P. expansum spores; 1,000 ppm (Kphos), 22° C., 24 hours",27
same,Germinated spores,"P. expansum spores; 1,000 ppm (Kphos), 22° C., 48 hours",34
same,Germinated spores,"P. expansum spores; 1,000 ppm (Kphos), 50° 2 min, 24 hours",0
same,Germinated spores,"P. expansum spores; 1,000 ppm (Kphos), 50° 2 min, 48 hours",21
same,Germinated spores,"P. expansum spores; 4,000 ppm (Kphos), 22° C., 24 hours",11
same,Germinated spores,"P. expansum spores; 4,000 ppm (Kphos), 22° C., 48 hours",11
same,Germinated spores,"P. expansum spores; 4,000 ppm (Kphos), 50° 2 min, 24 hours",0
same,Germinated spores,"P. expansum spores; 4,000 ppm (Kphos), 50° 2 min, 48 hours",0
same,activity of PA,"P. expansum spores; ambient temperature, even at 4,000 ppm",partial
"C=CCOC(Cn1ccnc1)c1ccc(Cl)cc1Cl (stereo not shown) [Imazalil, imazalil, reference compound]",Average % of decayed fruit,[1]; 300 ppm imazalil,42.5%

# Reference: patent publication US20080145499A1, “Method for treating fruit or vegetables with phosphorous ions and corresponding compositions” (priority 2006, published 2008)
